By EC50 is commonly meant the concentration giving half of the maximal effect. A lower EC50 goes with an effect from little substance.

For one test, the system named is HT-1080 cells. Description: HT-1080 cell viability assay (ferroptosis induced by RSL3, Cell Titer-Glo). It counts as cell-based. The conditions noted are these: Homo sapiens, HT-1080, 20 h, ferroptosis inducer RSL3, 20 hours, ferroptosis inhibitory activity, Table 2. Summed up: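 EC50 fitted by sigmoidal dose-response regression on luminescent viability data normalized to untreated cells. Compounds ran as a 10-point, 3-fold series from 1.1 μM alongside RSL3 for 20 hours, after overnight seeding.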
`Cc1nc(N2CC[Si](C)(C)CC2)ccc1NC1CC2(CC(N)C2)C1` (stereo not drawn) [Compound 556, N2-(6-(4,4-dimethyl-1,4-azasilinan-1-yl)-2-methylpyridin-3-yl)spiro[3.3]heptane-2,6-diamine] showed an EC50 of 0.0001 to 0.1 µM. In turn, `Cc1nc(NCC(F)(F)F)ccc1NC1CC2(CC(N)C2)C1` (stereo not drawn) [Compound 557, N3-(6-aminospiro [3.3]heptan-2-yl)-6-methyl-N2-(2,2,2-trifluoroethyl)pyridine-2,5-diamine] returned an EC50 of 0.0001 to 0.1 µM. Still for that read-out and setting: as for `Cc1nc(N(C)CC(F)(F)F)ccc1NC1CC2(CC(N)C2)C1` (stereo not drawn) [Compound 558, N^5-(6-aminospiro [3.3]heptan-2-yl)-N2,6-dimethyl-N2-(2,2,2-trifluoroethyl)pyridine-2,5-diamine], the figure is 0.0001 to 0.1 µM.

The compound `N[C@H]1CC[C@H](CNc2ccc(C3CCN(CC(F)(F)F)CC3)cc2)CC1` [Compound 559, N-(((1r, 4r)-4-aminocyclohexyl)methyl)-4-(1-(2,2,2-trifluoroethyl)piperidin-4-yl)aniline] had an EC50 of 0.0001 to 0.1 µM. `NC1CC2(C1)CC(Nc1ccc(C3CCN(CC(F)(F)F)CC3)cc1)C2` (stereo not drawn) [Compound 560, N2-(4-(1-(2,2,2-trifluoroethyl)piperidin-4-yl)phenyl)spiro[3.3]heptane-2,6-diamine] showed an EC50 of 0.0001 to 0.1 µM. `NC1CCC(Nc2ccc3nc(N4CCC(C(F)(F)F)CC4)ccc3c2)CC1` (stereo not drawn) [Compound 562, N-(2-(4-(trifluoromethyl)piperidin-1-yl)quinolin-6-yl)cyclohexane-1,4-diamine] came in with an EC50 of 0.0001 to 0.1 µM. For the compound `NC(=O)C1CCC(Nc2ccc3cc(N4CCC(C(F)(F)F)CC4)ccc3c2)CC1` (stereo not drawn) [Compound 563, 4-((6-(4-(trifluoromethyl)piperidin-1-yl)naphthalen-2-yl)amino)cyclohexane-1-carboxamide], the EC50 fell in the range of 0.0001 to 0.1 µM.

Take `CC1CN(c2ccc3cc(NC4CC5(CC(N)C5)C4)ccc3c2)CC(C)O1` (stereo not drawn) [Compound 564, N^2-(6-(2,6-dimethylmorpholino)naphthalen-2-yl)spiro[3.3]heptane-2,6-diamine]: the EC50 fell in the range of 0.0001 to 0.1 µM. Still for that read-out and setting: then `C[C@@H]1CN(c2ccc3cc(NC4CC5(CC(N)C5)C4)ccc3n2)C[C@H](C)O1` (stereo partly drawn) [Compound 565, N2-(2-((2S,6R)-2,6-dimethylmorpholino)quinolin-6-yl)spiro[3.3]heptane-2,6-diamine], with 0.0001 to 0.1 µM; and `CC1CN(c2ccc3cc(NC4CC5(CC(N)C5)C4)ccc3n2)CC(C)N1C(=O)C(F)(F)F` (stereo not drawn) [Compound 566], with 0.0001 to 0.1 µM; and `CC1CN(c2ccc3cc(NC4CC5(CC(N)C5)C4)ccc3n2)CC(C)N1CC(F)(F)F` (stereo not drawn) [Compound 567, N2-(2-(3,5-dimethyl-4-(2,2,2-trifluoroethyl)piperazin-1-yl)quinolin-6-yl)spiro-[3.3]heptane-2,6-diamine], with 0.0001 to 0.1 µM. Same read-out and setting: then `Cc1nc(N2CC(C)SC(C)C2)ccc1NC1CC2(CC(N)C2)C1` (stereo not drawn) [Compound 568, N2-(6-(2,6-dimethylthiomorpholino)-2-methylpyridin-3-yl)spiro[3.3]heptane-2,6-diamine], with 0.0001 to 0.1 µM.

Compound `Cc1nc(N2CCSCC2)ccc1NC1CC2(CC(N)C2)C1` (stereo not drawn) [Compound 569, N^2-(2-methyl-6-thiomorpholinopyridin-3-yl) spiro[3.3]heptane-2,6-diamine] displayed an EC50 of 0.0001 to 0.1 µM. On the same count and under the same terms, as for `CC1CN(c2ccc3cc(NC4CC5(CC(N)C5)C4)ncc3c2)CC(C)O1` (stereo not drawn) [Compound 570, N2-(7-(2,6-dimethylmorpholino)isoquinolin-3-yl)spiro[3.3]heptane-2,6-diamine], the figure is 0.0001 to 0.1 µM; as for `CC1CN(c2ncc3cc(NC4CC5(CC(N)C5)C4)ccc3n2)CC(C)O1` (stereo not drawn) [Compound 571, N^2-(2-(2,6-dimethylmorpholino)quinazolin-6-yl)spiro[3.3]heptane-2,6-diamine], 0.0001 to 0.1 µM. Same read-out and setting: then `NC1CCC(Nc2ccc3cc(N4CCC(C(F)(F)F)CC4)cnc3c2)CC1` (stereo not drawn) [Compound 572, N1-(3-(4-(trifluoromethyl)piperidin-1-yl)quinolin-7-yl)cyclohexane-1,4-diamine], with 0.0001 to 0.1 µM. `NC1CCC(Nc2ccc3nc(N4CCC(C(F)(F)F)CC4)cnc3c2)CC1` (stereo not drawn) [Compound 573, N1-(2-(4-(trifluoromethyl)piperidin-1-yl)quinoxalin-6-yl)cyclohexane-1,4-diamine] displayed an EC50 of 0.0001 to 0.1 µM.

The test is the same for the next values; noted with them: Homo sapiens, HT-1080, 20 h, ferroptosis inducer RSL3, 20 hours, ferroptosis inhibitory activity, Table 3.
Turning to `Cc1cc(NC2CC3(CC(N)C3)C2)ccc1N1CCN(CC(F)(F)F)CC1` (stereo not drawn) [Compound 574, N^2-(3-methyl-4-(4-(2,2,2-trifluoroethyl)piperazin-1-yl)phenyl)spiro/3.3/heptane-2.6-diamine], the EC50 fell in the range of 0.0001 to 0.1 µM.

In the case of `CC[C@@H]1CN(c2ccc(NC3CC4(C3)CC(C(N)=O)C4)c(C)n2)C[C@H](CC)O1` (stereo partly drawn) [Compound 575, 6-((6-((2S,6R)-2,6-diethylmorpholino)-2-methylpyridin-3-yl)amino)spiro[3.3]heptane-2-carboxamide], the EC50 lay in the range of 0.0001 to 0.1 µM. The same measure, in the same setting: then `CC[C@@H]1CN(c2ccc(NC3CC(N)C3)c(C)n2)C[C@H](CC)O1` (stereo partly drawn) [Compound 576, N1-(6-((2S,6R)-2,6-diethylmorpholino)-2-methylpyridin-3-yl)cyclobutane-1,3-diamine], with 0.0001 to 0.1 µM; and `Cc1nc(N2C[C@@H](C)N(CC(F)(F)F)[C@@H](C)C2)ccc1NC1C[C@H]2CC(N)C[C@H]2C1` (stereo partly drawn) [Compound 577, (3aR,6aS)-N2-(6-((3R,5S)-3,5-dimethyl-4-(2.2,2-trifluoroethyl)piperazin-1-yl)-2-methylpyridin-3-yl)octahydropentalene-2,5-diamine], with 0.0001 to 0.1 µM. Still for that read-out and setting: as for `Cc1nc(N2C[C@@H](C)O[C@@H](C)C2)ccc1NCCC[C@H]1C[C@@H](N)C1` [Compound 578, N-(3-((1s,3R)-3-aminocyclobutyl)propyl)-6-((2S,6R)-2,6-dimethylmorpholino)-2-methylpyridin-3-amine], the figure is 0.0001 to 0.1 µM. Consider `CC1CN(c2ccc(NC3CC4(CC(N)C4)C3)c(F)n2)CC(C)N1CC(F)(F)F` (stereo not drawn) [Compound 579, N2-(6-(3,5-dimethyl-4-(2,2,2-trifluoroethyl)piperazin-1-yl)-2-fluoropyridin-3-yl)spiro[3.3]heptane-2,6-diamine], for which the EC50 lay in the range of 0.0001 to 0.1 µM. `CC1CN(c2ncc(NC3CC4(CC(N)C4)C3)cc2F)CC(C)N1CC(F)(F)F` (stereo not drawn) [Compound 580, N^2-(6-(3.5-dimethyl-4-(2,2,2-trifluoroethyl)piperazin-1-yl)-5-fluoropyridin-3-yl)spiro[3.3]hept ane-2,6-diamine] came in with a concentration giving a half-maximal response (EC50) of 0.0001 to 0.1 µM.

`Cc1nc(N2CCC3(CCCOC3)CC2)ccc1NC[C@H]1CC[C@H](N)CC1` [Compound 581, N-(((1r,4r)-4-aminocyclohexyl)methyl)-2-methyl-6-(2-oxa-9-azaspiro [5.5]undecan-9-yl)pyridin-3-amine] came in with an EC50 of 0.0001 to 0.1 µM. On the same count and under the same terms, as for `Cc1nc(N2CCC3(CCOCC3)CC2)ccc1NC[C@H]1CC[C@H](N)CC1` [Compound 582, N-(((1r,4r)-4-aminocyclohexyl)methyl)-2-methyl-6-(3-oxa-9-azaspiro [5.5]undecan-9-yl)pyridin-3-amine], the figure is 0.0001 to 0.1 µM.

The same test, now with this note: Homo sapiens, ferroptosis inducer RSL3, 20 hours, ferroptosis inhibitory activity, Table 2.
The compound `NC1CCC(Nc2ccc3cc(N4CCC(C(F)(F)F)CC4)ccc3c2)CC1` (stereo not drawn) [Compound 561, N1-(6-(4-(trifluoromethyl)piperidin-1-yl)naphthalen-2-yl)cyclohexane-1,4-diamine] yielded an EC50 of 0.0001 to 0.1 µM.

The values above are taken from US20240360114A1 (SIRONAX LTD., priority 2021, published 2024).
